According to patent publication US20010006673A1, “LUTEIN- CONTAINING SUPPLEMENT AND PROCESS FOR ENHANCING IMMUNE RESPONSE IN ANIMALS” (priority 1998, published 2001):

Columns and labels:
[1] = test system: IgG and IgM; experiment: Serum IgG and IgM by single radial immunodiffusion, dogs; assay type: in vivo, Beagle dogs
Method: Serum collected on weeks 0, 2, 4, 8 and 12 were analyzed for IgG and IgM concentrations by single radial immunodiffusion (SRID). In addition, all dogs were vaccinated with the polyvalent vaccine (Vanguard 5, Smithkline Beacham, West Chester, Pa.) on week 13 and again on week 15 to study the possible anamnestic effect of dietary lutein. Blood was collected weekly from week 13 through week 17. Goat antiserum to canine IgG (10%, whole molecule) or IgM (7.5%, μ chain specific) (ICN, Aurora, Ohio) was mixed with melted agarose (10 g/L in PBS; Sigma Chem. Co., St. Louis, Mo.) and the mixture solidified in SRID plates.
Duplicate 5 μL volumes of serum or IgG (0, 2.88, 5.75, 11.5 and 23.0 mg/ml) or IgM (0, 0.25, 0.5, 1.0 and 2.0 mg/ml) standard were loaded into the wells. After incubating for 24 hours at room temperature in a humidified chamber, ring diameters were measured using a SRID reader (Transidyne General Corp., Ann Arbor, Mich.).

[2] = test system: IL-2; experiment: IL-2 production in Con A-stimulated whole blood cultures, cats; assay type: in vivo, Tabby cats
Method: Whole blood was diluted 1:2 in RPMI-1640 complete medium and cultured for 48 hours in the presence of 5 μg/mL Con A. The conditioned medium was removed and frozen at −80° C. The IL-2 concentrations were determined in duplicate by ELISA using a human IL-2 kit (Intergen, Purchase, N.Y). The human anti-IL-2 was previously determined to cross-react with feline IL-2.

[3] = test system: cats; experiment: Delayed type hypersensitivity (DTH) response in cats; assay type: in vivo, Tabby cats; conditions: for DTH response to vaccine: week 6, 72 h post-injection

CC1=C[C@H](O)CC(C)(C)[C@H]1/C=C/C(C)=C/C=C/C(C)=C/C=C/C=C(C)/C=C/C=C(C)/C=C/C1=C(C)C[C@@H](O)CC1(C)C [lutein]
Plasma IgG ([1]; dogs fed 5 mg lutein, week 16, after revaccination on week 15, P<0.05): higher | Plasma IgG ([1]; dogs fed 20 mg lutein, week 17, after revaccination on week 15): higher | Concentration of plasma IgM ([1]; dogs, after revaccination): not changed | IL-2 production ([2]; throughout the experimental period): no significant differences | Average concentration of IL-2 in Con A-stimulated cultures ([2]; throughout the study): 15.1 ± 0.79 ng/mL | DTH response to vaccine ([3]; cats fed 5 or 10 mg lutein): significantly higher | DTH response to Con A ([3]; cats, week 6): no significant dietary effect | DTH response to vaccine ([3]; cats, all doses): significant dose-related | DTH response to Con A and vaccine ([3]; cats, week 12): no significant treatment difference
